Experimental findings from ChEMBL document CHEMBL1147034, “Synthesis and evaluation of 2',4',6'-trihydroxychalcones as a new class of tyrosinase inhibitors” (Bioorg Med Chem, 2007) are described below.

A word on the inhibition: it is the drop in the measured response relative to a control, in per cent. As usually defined, the IC50 is the concentration that inhibits the measured activity by half. Low values mean greater potency in that assay, high ones weaker potency in that assay. By Ki is commonly meant the dissociation constant of the complex between target and ligand, obtained from inhibition or displacement. Low readings indicate tighter binding, high ones weaker binding.

The first experiment deals with T1, Tyrosinase (Agaricus bisporus) (UniProt O42713).
T1 sequence (whole entry): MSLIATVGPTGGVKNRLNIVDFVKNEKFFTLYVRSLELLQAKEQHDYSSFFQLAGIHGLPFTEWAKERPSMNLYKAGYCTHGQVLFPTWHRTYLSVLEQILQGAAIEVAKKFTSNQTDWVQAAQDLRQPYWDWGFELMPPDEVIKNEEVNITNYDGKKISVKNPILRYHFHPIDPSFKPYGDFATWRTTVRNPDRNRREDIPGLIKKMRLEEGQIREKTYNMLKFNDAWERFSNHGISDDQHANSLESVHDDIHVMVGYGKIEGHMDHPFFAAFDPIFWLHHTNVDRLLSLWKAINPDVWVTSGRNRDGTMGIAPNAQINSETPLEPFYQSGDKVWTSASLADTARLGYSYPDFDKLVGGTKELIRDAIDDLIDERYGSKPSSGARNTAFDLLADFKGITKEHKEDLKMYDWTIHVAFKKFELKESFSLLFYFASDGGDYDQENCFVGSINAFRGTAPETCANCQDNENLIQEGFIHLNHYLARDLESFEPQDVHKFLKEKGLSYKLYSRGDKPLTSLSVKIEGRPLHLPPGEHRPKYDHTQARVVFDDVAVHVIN
Nature of the experiment: Inhibition of mushroom tyrosinase at 400 uM.
For `O=C(/C=C/c1ccccc1)c1c(O)cccc1O`, the inhibition was under 20%.

`O=C(/C=C/c1ccc(O)c(O)c1)c1ccccc1O`: the inhibition is under 20%.

For the compound `COc1cc(O)c(C(=O)/C=C/c2ccc(O)c(O)c2)c(OC)c1`, the inhibition is under 20%.

As to `COc1cc(O)c(C(=O)/C=C/c2cccc(O)c2O)c(OC)c1`, the inhibition was under 20%.

In turn, `O=C(/C=C/c1ccc(O)c(O)c1)c1c(O)cc(O)cc1O` displayed an inhibition of under 20%.

Regarding `O=C(/C=C/c1ccccc1)c1ccc(O)cc1O`, the inhibition was under 20%.

In turn, `COc1cc(O)c(C(=O)/C=C/c2cc(O)c(O)c(O)c2)c(OC)c1` had an inhibition of under 20%.

For the compound `O=C(/C=C/c1ccc(O)cc1O)c1c(O)cc(O)cc1O`, the inhibition is 72%.

In the case of `O=C(/C=C/c1ccc(O)c(O)c1)c1ccc(O)c(O)c1`, the inhibition was under 20%.

Another experiment addresses T2, Tyrosinase (Agaricus bisporus, UniProt O42713).
T2 sequence (O42713 whole entry): T1 sequence (whole entry)
In turn, `O=C(/C=C/c1ccc(O)cc1O)c1ccc(O)cc1O` registered an IC50 of 5 µM.

Regarding `O=C(/C=C/c1cccc(O)c1O)c1c(O)cc(O)cc1O`, the IC50 stood at 193 µM.

Take `O=C(/C=C/c1cc(O)c(O)c(O)c1)c1c(O)cc(O)cc1O`: half-maximal inhibition (IC50) required 200 µM.

Compound `O=C(/C=C/c1ccc(O)cc1O)c1c(O)cc(O)cc1O` came in with an IC50 of 1 µM and a Ki of 3.1 µM.

The compound `COc1ccc(/C=C/C(=O)c2c(O)cc(O)cc2O)cc1OC` returned an IC50 of 150 µM.

As for `COc1cc(O)cc(O)c1C(=O)/C=C/c1ccc(O)cc1O`, the IC50 was 3.1 µM.
